Patent US9655909B2, “Personalized medicine for the prediction of therapy targeting the hedgehog pathway” (Board of Regents, The University of Texas System, priority 2012, dated 2017)

Experiments:
[1] = system: Gli-dependent luciferase reporter; assay: Gli-dependent luciferase reporter assay in EAC cell lines; format: cell-based, human
Procedure: Because Gli protein activity is a useful readout for the HH pathway (Jiang and Hui, 2008), the inventors employed a Gli-dependent luciferase reporter system (Sasaki et al., 1997) to evaluate the influence of TNFα on the HH pathway in three EAC cell lines, BE3, SKGT-4, and OE33 (Boonstra et al., 2010). […] Then, the inventors compared the activity of HH pathway in EAC cells stimulated by SHH or TNFα.
Cells were seeded in six-well plates and transfected with GliBS or mGliBS combined with CMV-Renilla vector as an internal standard. After overnight (12-16 hr) transfection, the cells were used for further experiments. After treatment, the cells were rinsed with PBS and subjected to luciferase assay using a dual-luciferase reporter assay system (Promega) based on the manufacturer's instruction.

[2] = system: EAC cell lines and BE3 Gli1 stable clones; assay: IC50 evaluation for cyclopamine and GDC-0449 (cell growth); format: cell-based, human; details: for resistance of BE3/Gli1 under TNFα treatment: TNFα 5 ng/mL; for efficacy in the EAC cell lines with rapamycin treatment: rapamycin 10 nM pre-treatment
Procedure: FIGS. 7A-7G. […] FIG. 7A. The expression of activated SHH (SHH-N) in EAC cell lines and the cell culture medium. FIG. 7B. The mRNA levels of Gli1 target genes in EAC cell lines with or without SHH treatment (1 μg/mL). The mRNA levels of Gli1 target genes are normalized to ACTIN. Error bars represent SD (n=3). FIG. 7C. […] Error bars represent SD (n=4). FIG. 7D. […] Error bars represent SD (n=4). FIG. 7E. […] Error bars represent SD (n=4). FIG. 7F. […] Error bars represent SD (n=4). FIG. 7G. In vivo combination therapy for subcutaneously inoculated tumors from BE3 cells using GDC-0449 (50 mg/kg) or RAD001 (10 mg/kg). One million cells were subcutaneously injected into the right flank of nude mice and the tumor cells were allowed to grow for 10 days (the arrow) before initiation of drug treatment. The vehicle, GDC-0449, RAD001, or combination of GDC-0449 and RAD001 were orally administrated, qd. The tumor volume measured and calculated using the formula: l×w^2, where l is the longest diameter and w is the shortest diameter. Error bars represent SD (n=5).
The concentrations required to inhibit cell growth by 50% (IC50) were calculated from survival curves.

[3] = system: subcutaneously inoculated tumors from BE3 cells; assay: In vivo combination therapy of subcutaneous BE3 tumors; parameters: species or system nude mice
From the text: FIG. 7A. […] FIG. 7B. […] Error bars represent SD (n=3). FIG. 7C. […] FIG. 7G.

Gli1 [4] = assay: Western blot of Gli1 in breast cancer cell lines; format: cell-based; details: for Gli1 protein levels: BT549 and Hs578t breast cancer cells
Procedure: FIG. 21. […] Western blot showing the effect of PF-4708671 on S6 phosphorylation, S6K1 phosphorylation, and Gli1 expression in the BT549 cell line. Tubulin was detected as a loading control. Lane labels indicate the micromolar concentration of PF-4708671 used.
FIG. 22. […] DMSO was used as a negative control.
A western blot was performed to show the effect of PF-4708671 on S6 phosphorylation, S6K1 phosphorylation, and Gli1 expression in the BT549 cell line (FIG. 21).

[5] = system: CF-Pac-1 and AsPC-1 stable clones; assay: MTT assay of PDAC Gli1 stable clones with GEM; format: cell-based
From the text: FIGS. 19A-C. Gli1 is negatively correlated with sensitivity of pancreatic cancer cells to GEM. Gli1 knock-down sensitized the response of PDAC cells to gemcitabine (GEM), but overexpression of Gli1 protected PDAC cells from GEM. FIG. 19A. Western blot of Gli1 in stable clones of AsPC-1 and CF-Pac-1 cells with Gli1 knocked down or ectopic expression. FIG. 19B. MTT assay of CF-Pac-1 stable clones with GEM. FIG. 19C. MTT assay of AsPC-1 stable clones with GEM.
Knock-down of Gli1 in PDAC cells sensitized the cells to gemcitabine (GEM), and overexpression of Gli1 protected PDAC cells from GEM. The inventor's performed a western blot for Gli1 in stable clones of AsPC-1 and CF-Pac-1 cells with Gli1 knocked down or ectopically expressed (FIG. 19A). MTT assays were performed on CF-Pac-1 stable clones (FIG. 19B) and AsPC-1 stable clones (FIG. 19C) with GEM. Gli1 expression correlated negatively with sensitivity of pancreatic cancer cells to GEM.

Gli1 [6] = assay: Gli1 nuclear accumulation (cell fractionation Western blot, immunofluorescence) in BE3 cells; format: cell-based, human; details: TNFα 5 ng/mL alone
Procedure: FIGS. 1A-1E. TNFα regulates Gli1 transcriptional activity. FIG. 1A. Luciferase assay for Gli transcriptional activity in esophageal adenocarcinoma (EAC) cell lines with or without TNFα (5 ng/mL) stimulation. The EAC cells were transfected using GliBS-Luciferase or mGliBS-Luciferase with CMV-Renilla at a 10:1 ratio, serum-starved overnight, and then treated with TNFα for 24 hr. GliBS is a Gli-responsive reporter, and mGliBS is a Gli-unresponsive reporter. Error bars represent SD (n=5). FIG. 1B. The mRNA levels of Gli1 target genes in the EAC cell lines with or without TNFα (5 ng/mL) stimulation were examined by real-time PCR and normalized to the mRNA level of ACTIN. Error bars represent SD (n=4). FIG. 1C. […] FIG. 1D. […] Then, the cells were lysed for cell fractionation followed by Western blotting. Lamin B and tubulin were used as markers for the nucleus and the cytoplasm, respectively. FIG. 1E. Immunofluorescent analysis of Gli1 in BE3 cells treated with TNFα (5 ng/mL) alone or co-treated with TNFα and rapamycin (50 nM) for the indicated time course. Scale bar=100 μm for original picture and 25 μm for inset. Dapi was used to stain nuclei.
Cellular fractionation was performed as described previously (Lin et al., 2001). Briefly, cells were lysed in the lysis buffer (20 mM HEPES, pH 7.0, 10 mM KCl, 2 mM MgCl2, 0.5% NP-40, 1 mM Na3VO4, 10 mM NaF, 1 mM PMSF, 2 μg/mL aprotinin). […]

Compound: CS(=O)(=O)c1ccc(C(=O)Nc2ccc(Cl)c(-c3ccccn3)c2)c(Cl)c1 [GDC-0449]
- constitutive activation of HH pathway in EAC cell lines ([1]; Gli reporter, EAC cell lines, FIG. 9A): can be inhibited
- mTOR/S6K1-mediated Gli1 activation ([1]; SMO inhibitors): had little effects
- IC50 value in BE3/S84E compared with BE3/EV, BE3/Gli1 and BE3/S84A ([2]; 48 hr, Gli1 stable clones): much higher
- resistance of BE3/Gli1 under TNFα treatment [2]: increased the resistance
- efficacy in the EAC cell lines with rapamycin treatment [2]: enhanced the efficacy
- EAC tumor size ([3]; GDC-0449 50 mg/kg qd oral, alone): decreased the EAC tumor size

Compound: NC1(c2ccc(-c3nc4ccn5c(=O)[nH]nc5c4cc3-c3ccccc3)cc2)CCC1 [MK]
- Gli1 protein levels (Gli1 [4]): decreased Gli1 protein levels

Compound: CCc1cncnc1N1CCN(Cc2nc3ccc(C(F)(F)F)cc3[nH]2)CC1 [PF-4708671]
- Gli1 expression (Gli1 [4]; BT549 cell line): decreased

Compound: CO[C@H]1C[C@@H]2CC[C@@H](C)[C@@](O)(O2)C(=O)C(=O)N2CCCC[C@H]2C(=O)O[C@H]([C@H](C)C[C@@H]2CC[C@@H](OCCO)[C@H](OC)C2)CC(=O)[C@H](C)/C=C(\C)[C@@H](O)[C@@H](OC)C(=O)[C@H](C)C[C@H](C)/C=C/C=C/C=C/1C [RAD001, everolimus]
- tumor-inhibitory effect of GDC-0449 when combined with RAD001 ([3]; GDC-0449 50 mg/kg and RAD001 10 mg/kg qd oral): enhanced the tumor-inhibitory effect
- tumor growth ([3]; RAD001 10 mg/kg qd oral, alone, low dose): did not inhibit tumor growth
- Gli1 protein levels (Gli1 [4]): decreased Gli1 protein levels

Compound: CC1=C2C[C@H]3[C@@H](CC=C4C[C@@H](O)CC[C@@]43C)[C@@H]2CC[C@]12O[C@@H]1C[C@H](C)CN[C@H]1[C@H]2C [cyclopamine]
- resistance of BE3/Gli1 under TNFα treatment [2]: increased the resistance
- efficacy in the EAC cell lines with rapamycin treatment [2]: enhanced the efficacy

Compound: Nc1ccn([C@@H]2O[C@H](CO)[C@@H](O)C2(F)F)c(=O)n1 [gemcitabine]
- response of PDAC cells with knock-down of Gli1 [5]: sensitized
- response of PDAC cells with overexpression of Gli1 [5]: protected

Compound: TNFα
- activity of HH pathway in EAC cells ([1]; Gli reporter, stimulation by SHH or TNFα, FIG. 9A): increased the activity of HH pathway
- Gli1 nuclear accumulation (Gli1 [6]): rapidly induced Gli1 nuclear accumulation
